Measured values from patent US20230257385A1, “SALT AND SOLID FORMS OF TABERNANTHALOG” (priority 2021, published 2023).
Read-outs that look alike come from different tables or passages of the source.

Columns and labels:
[1] = Equilibrium humidity evaluation 75% RH/40° C., 10 days (Example 8, Experiment 6); format: physicochemical
Description: The experimental procedure that accompany this experiment is provided in Section G.ii.
All forms were maintained under constant equilibrium humidity (75% RH). XRPD, DSC, TGA, PLM and ^1H NMR analyses were performed on the absorbents at t=5 d and t=10 d, to confirm their physical fates and to determine the extent of residual solvent exchange or sequestration.
100 mg portions of Tabernanthalog salts ([…]) were placed in the relevant open vials. The powders were finely divided and distributed evenly over the base of the vial, such that equal material coverage across the panel was observed. These samples were then maintained 40° C. under 75% RH. The samples were sub-sampled at intervals of 5 and 10 days and analyzed by ^1H NMR, HPLC, XRPD, DSC, TGA and PLM, for evidence of phase change or chemical degradation.

[2] = Thermocycling of the monofumarate salt (Experiment Reference 9); format: physicochemical; details: for XRPD (moist pellet): form (pattern) of wet pellet after thermocycling; for XRPD crystallinity (oven dried): tabernanthalog monofumarate salt thermocycled between 20° C. and peak T (75% of solvent b.p.), solvent, input and number of cycles per sample reference
Description: The tabernanthalog monofumarate salt (Pattern #1, 75 mg, 1 wt) was weighed out in to 4 separate vials and the corresponding solvents (750 μl, 10 vol) from Table 89 were charged.
The suspensions underwent constant amplitude thermocycling at +0.5° C./min up to 75% of the relevant solvent b.p. and −0.5° C./min down to 20° C. The thermocycle was repeated 5 times for 9-A (Experiment Reference 9-Sample Reference A) to 9-D (Experiment Reference 9-Sample Reference D) prior to working up the samples, analyzed the by XRPD (wet and dry). 9-E (Experiment Reference 9-Sample Reference E) and 9-F (Experiment Reference 9-Sample Reference F) were subjected to 10 cycles and 9-G (Experiment Reference 9-Sample Reference G) to 35 cycles.
Thermocycling in different solvents can promote the formation of alternative polymorphic forms. The tabernanthalog monofumarate salt (Pattern #1), was heated and cooled between 20° C. and 75% of the relevant solvent b.p. at 0.5° C./minute, for 5 consecutive cycles; a 10-minute dwell was incorporated at each inflection. Thermocycling is ripening technique, that encourages particle size enlargement and promotes the evolution of the API into a stable phase. […] The products were analyzed both wet and dry to determine if form changes had occurred, all products were consistent with previously encountered patterns, and by DSC none of the products were single phase.

[3] = cited from earlier work
[4] = counter ion (acid), theoretical pKa value

## COc1ccc2c3c([nH]c2c1)CCN(C)CC3.O=C(O)c1ccccc1 [Sample 16-C2]
[1]; Benzoate salt, t = 10 d at 75% RH at 40° C.
  Tabernanthalog RRT = 1.00 (trended HPLC data, chemical purity): 98.17

## COc1ccc2c3c([nH]c2c1)CCN(C)CC3.O=C(O)/C=C/C(=O)O [Pattern 9-G]
[2]
  XRPD (moist pellet): Pattern #2c
  XRPD crystallinity (oven dried): 81.1%

## COc1ccc2c3c([nH]c2c1)CCN(C)CC3.O=C(O)/C=C/C(=O)O [Pattern 9-B]
[2]
  XRPD (moist pellet): Pattern #1
  XRPD crystallinity (oven dried): 73.6%

## C/C=C/C=C/C(=O)O.COc1ccc2c3c([nH]c2c1)CCN(C)CC3 [Sample 6-D1]
[1]; Sorbate salt, t = 5 d at 75% RH at 40° C.
  Tabernanthalog RRT = 1.00 (trended HPLC data, chemical purity): 99.52

## O=C(O)[C@@H](O)[C@H](O)[C@H](O)[C@@H](O)C(=O)O [Galactaric acid]
[3]; [4]
  pKa1: 3.1
  pKa2: 3.6

## CCS(=O)(=O)O [Ethanesulfonic acid]
[3]; counter ion of the salt screen
  pKa1: −2.10
  pKa2: −1.50

## COc1ccc2c3c([nH]c2c1)CCN(C)CC3.O=C(O)/C=C/C(=O)O [Pattern 9-E]
[2]
  XRPD (moist pellet): Pattern #2c
  XRPD crystallinity (oven dried): 77.1%

## O=C(O)CO [Glycolic acid]
[3]; [4]
  pKa1: 3.3
[3]; counter ion of the salt screen
  pKa1: 3.30

## COc1ccc2c3c([nH]c2c1)CCN(C)CC3.O=C(O)c1ccccc1 [Sample 6-C1]
[1]; Benzoate salt, t = 5 d at 75% RH at 40° C.
  Tabernanthalog RRT = 1.00 (trended HPLC data, chemical purity): 98.36

## O=C(O)[C@H](O)[C@@H](O)[C@H](O)[C@H](O)CO [D-Gluconic acid]
[3]; [4]
  pKa1: 3.8
[3]; counter ion of the salt screen
  pKa1: 3.80

## COc1ccc2c3c([nH]c2c1)CCN(C)CC3.O=C(O)/C=C/C(=O)O [Pattern 9-A]
[2]
  XRPD (moist pellet): Incoherent
  XRPD crystallinity (oven dried): 82.1%
[2]; moist pellet vs oven dried pellet after thermocycling, ✓ / x
  crystal form change following dry: ✓

## COc1ccc2c3c([nH]c2c1)CCN(C)CC3.O=C(O)/C=C/C(=O)O [Pattern 9-C]
[2]
  XRPD (moist pellet): Pattern #8
  XRPD crystallinity (oven dried): 72.8%

## COc1ccc2c3c([nH]c2c1)CCN(C)CC3.O=C(O)/C=C/C(=O)O [Sample 6-A2]
[1]; Fumarate salt, t = 10 d at 75% RH at 40° C.
  Tabernanthalog RRT = 1.00 (trended HPLC data, chemical purity): 98.71

## Br [Hydrobromic acid]
[3]; counter ion of the salt screen
  pKa1: −9.00
